According to ChEMBL document CHEMBL2385074, “Structure-activity relationship analysis of bufadienolide-induced in vitro growth inhibitory effects on mouse and human cancer cells” (J Nat Prod, 2013):
pIC50: −log10 of the molar value. The source made the active and inactive calls. No cut-off for these calls is given here.

Assays:
[1] = tested on: PC-3; experiment: Cytotoxicity against human PC3 cells at <= 10 uM after 3 days by MTT assay; format: functional, cell-based
[2] = tested on: CT26.WT; experiment: Cytotoxicity against mouse CT26.WT cells at <= 10 uM after 3 days by MTT assay; format: functional, cell-based
[3] = tested on: A549; experiment: Cytotoxicity against human A549 cells at <= 10 uM after 3 days by MTT assay; format: functional, cell-based
[4] = tested on: MCF7; experiment: Cytotoxicity against human MCF7 cells at <= 10 uM after 3 days by MTT assay; format: functional, cell-based
[5] = tested on: U-373MG ATCC; experiment: Cytotoxicity against human U373 cells at <= 10 uM after 3 days by MTT assay; format: functional, cell-based
[6] = tested on: B16-F10; experiment: Cytotoxicity against mouse B16F10 cells at <= 10 uM after 3 days by MTT assay; format: functional, cell-based
[7] = tested on: SK-MEL-28; experiment: Cytotoxicity against human SK-MEL-28 cells at <= 10 uM after 3 days by MTT assay; format: functional, cell-based
[8] = tested on: Hs 683; experiment: Cytotoxicity against human Hs683 cells at <= 10 uM after 3 days by MTT assay; format: functional, cell-based
[9] = tested on: MCF7; experiment: Cytotoxicity against human MCF7 cells after 3 days by MTT assay; format: functional, cell-based; details: MCF7, 72 h
[10] = tested on: A549; experiment: Cytotoxicity against human A549 cells after 3 days by MTT assay; format: functional, cell-based; details: A549, 72 h
[11] = tested on: B16-F10; experiment: Cytotoxicity against mouse B16F10 cells after 3 days by MTT assay; format: functional, cell-based; details: B16-F10, 72 h
[12] = tested on: SK-MEL-28; experiment: Cytotoxicity against human SK-MEL-28 cells after 3 days by MTT assay; format: functional, cell-based; details: SK-MEL-28, 72 h
[13] = Cytotoxicity against human U373 cells after 3 days by MTT assay; format: functional, cell-based, U-373MG ATCC; details: U373 MG, 72 h
[14] = Cytotoxicity against mouse CT26.WT cells after 3 days by MTT assay; format: functional, cell-based; details: 72 h
[15] = tested on: PC-3; experiment: Cytotoxicity against human PC3 cells after 3 days by MTT assay; format: functional, cell-based; details: PC-3, 72 h
[16] = Cytotoxicity against human Hs683 cells after 3 days by MTT assay; format: functional, cell-based; details: Hs 683, 72 h

Compound | Activity [1] | Activity [2] | Activity [3] | Activity [4] | Activity [5] | Activity [6] | Activity [7] | Activity [8] | pIC50 [9] | pIC50 [10] | pIC50 [11] | pIC50 [12] | pIC50 [13] | pIC50 [14] | pIC50 [15] | pIC50 [16]
COC(=O)[C@H]1CC[C@]2(O)[C@@H]3CC[C@@H]4C[C@@H](OC(C)=O)CC[C@]4(C)[C@H]3[C@H](OC(C)=O)C[C@]12C | inactive | inactive | inactive | inactive | inactive | inactive | inactive | inactive | – | – | – | – | – | – | – | –
CC(=O)O[C@H]1CC[C@@]2(C)[C@H](CC[C@@H]3[C@@H]2[C@H](OC(C)=O)C(=O)[C@]2(C)[C@@H](c4ccc(=O)oc4)CC[C@]32O)C1 | – | – | – | – | – | – | – | – | 5.14 | 5.23 | < 5.00 | 5.10 | 5.06 | < 5.00 | < 5.00 | 5.58
CC(=O)O[C@H]1C[C@]2(O)[C@@H]3CC[C@@H]4C[C@@H](O)CC[C@]4(C)[C@H]3CC[C@]2(C)[C@H]1c1ccc(=O)oc1 [BUFOTALIN] | – | – | – | – | – | – | – | – | 7.43 | 7.85 | < 5.00 | 7.19 | 7.13 | < 5.00 | 7.47 | 8.05
C[C@]12CC[C@H](O)C[C@H]1CC[C@@H]1[C@@H]2C(=O)[C@@H](O)[C@]2(C)[C@@H](c3ccc(=O)oc3)CC[C@]12O [BUFARENOGIN] | – | – | – | – | – | – | – | – | 5.03 | 5.42 | < 5.00 | < 5.00 | < 5.00 | < 5.00 | 5.13 | 5.57
C[C@@H]1O[C@@H](O[C@H]2CC[C@@]3(C)[C@H](CC[C@@H]4[C@@H]3[C@H](O)C[C@]3(C)[C@@H](c5ccc(=O)oc5)CC[C@]43O)C2)[C@H](O)[C@H](O)[C@H]1O | – | – | – | – | – | – | – | – | 8.10 | > 9.00 | 6.18 | 8.30 | 8.52 | 6.06 | > 9.00 | 8.70
COC(=O)[C@H]1CC[C@]2(OC=O)[C@@H]3CC[C@@H]4C[C@@H](OC(C)=O)CC[C@]4(C)[C@H]3[C@H](OC(C)=O)C(=O)[C@]12C | inactive | inactive | inactive | inactive | inactive | inactive | inactive | inactive | – | – | – | – | – | – | – | –
CC(=O)OC[C@H]1CC[C@H]2[C@@H]3CC[C@@H]4C[C@@H](OC(C)=O)CC[C@]4(C)[C@H]3C(=O)[C@@H](OC(C)=O)[C@]12C | inactive | inactive | inactive | inactive | inactive | inactive | inactive | inactive | – | – | – | – | – | – | – | –
C[C@H]1O[C@@H](O[C@H]2[C@@H](O)C[C@H](O[C@H]3[C@@H](O)C[C@H](O[C@H]4CC[C@@]5(C)[C@H](CC[C@@H]6[C@@H]5C[C@@H](O)[C@]5(C)[C@@H](C7=CC(=O)OC7)CC[C@]65O)C4)O[C@@H]3C)O[C@@H]2C)C[C@H](O)[C@@H]1O [DIGOXIN] | – | – | – | – | – | – | – | – | 6.37 | 7.30 | < 5.00 | 6.58 | 6.84 | < 5.00 | 7.12 | 7.40
C[C@@H]1O[C@@H](O[C@H]2C[C@@H](O)[C@]3(CO)[C@H]4[C@H](O)C[C@]5(C)[C@@H](C6=CC(=O)OC6)CC[C@]5(O)[C@@H]4CC[C@]3(O)C2)[C@H](O)[C@H](O)[C@H]1O [OUABAIN] | – | – | – | – | – | – | – | – | 6.88 | 7.57 | < 5.00 | 6.68 | 7.11 | < 5.00 | 7.37 | 7.55
C[C@]12CC[C@H](O)C[C@@H]1CC[C@@H]1[C@@H]2CC[C@]2(C)[C@@H](c3ccc(=O)oc3)CC[C@]12O | – | – | – | – | – | – | – | – | 6.37 | – | < 5.00 | 6.33 | 6.44 | < 5.00 | 7.17 | 7.68
C[C@@H]1O[C@@H](O[C@H]2CC[C@]3(C=O)[C@H]4CC[C@]5(C)[C@@H](c6ccc(=O)oc6)CC[C@]5(O)[C@@H]4CC[C@]3(O)C2)[C@H](O)[C@H](O)[C@H]1O[C@@H]1O[C@H](CO)[C@@H](O)[C@H](O)[C@H]1O [HELLEBRIN] | – | – | – | – | – | – | – | – | 7.36 | 8.22 | < 5.00 | 7.17 | 7.44 | < 5.00 | 7.96 | 8.15
C[C@]12CC[C@H](O)C[C@H]1CC[C@@H]1C2=C(O)C(=O)[C@]2(C)[C@@H](c3ccc(=O)oc3)CC[C@]12O [ARGENTINOGENIN] | – | – | – | – | – | – | – | – | 7.44 | 7.28 | < 5.00 | 7.15 | 7.07 | < 5.00 | 7.37 | 8.05
COC(=O)[C@H]1[C@@H](O)[C@H]2O[C@]23[C@@H]2CC[C@@H]4C[C@@H](OC(C)=O)CC[C@]4(C)[C@H]2CC[C@]13C | inactive | inactive | inactive | inactive | inactive | inactive | inactive | inactive | – | – | – | – | – | – | – | –
COC(=O)[C@H]1CC[C@]2(O)[C@@H]3CC[C@@H]4C[C@@H](OC(C)=O)CC[C@]4(C)[C@H]3[C@H](OC(C)=O)[C@@H](OC(C)=O)[C@]12C | inactive | inactive | inactive | inactive | inactive | inactive | inactive | inactive | – | – | – | – | – | – | – | –
CC(=O)O[C@H]1CC[C@@]2(C)[C@H](CC[C@@H]3[C@@H]2[C@H](OC(C)=O)C(=O)[C@]2(C)[C@@H]4CC[C@]32OC4=O)C1 | inactive | inactive | inactive | inactive | inactive | inactive | inactive | inactive | – | – | – | – | – | – | – | –
C[C@]12CC[C@H](OC(c3ccccc3)c3ccccc3)C[C@@]1(O)CC[C@@H]1[C@@H]2CC[C@]2(C)[C@@H](C(=O)OC(c3ccccc3)c3ccccc3)CC[C@]12O | inactive | inactive | inactive | inactive | inactive | inactive | inactive | inactive | – | – | – | – | – | – | – | –
C[C@]12CC[C@H]3[C@@H](CC[C@H]4C[C@@H](O)CC[C@@]43C=O)[C@@]1(O)CC[C@@H]2c1ccc(=O)oc1 | – | – | – | – | – | – | – | – | 6.56 | 7.29 | < 5.00 | 6.47 | 7.21 | < 5.00 | 5.61 | 7.40
CC(=O)N[C@@H]1CC[C@@]2(C)[C@H](CC[C@@H]3[C@@H]2CC[C@]2(C)[C@@H](c4ccc(=O)oc4)[C@@H](OC(C)=O)[C@H]4O[C@]342)C1 | – | – | – | – | – | – | – | – | 6.14 | 6.52 | < 5.00 | 5.46 | 6.42 | < 5.00 | 6.37 | 6.51
CC(=O)O[C@H]1CC[C@@]2(C=O)[C@H](CC[C@@H]3[C@@H]2CC[C@]2(C)[C@@H](c4ccc(=O)oc4)C[C@H]4O[C@]342)C1 | – | – | – | – | – | – | – | – | < 5.00 | 5.15 | < 5.00 | < 5.00 | 5.15 | < 5.00 | 5.27 | 5.44
COC(=O)[C@H]1CC[C@]2(O)[C@@H]3CC[C@@H]4C[C@@H](OC(C)=O)CC[C@]4(C)[C@H]3[C@H](OC(C)=O)C(=O)[C@]12C | inactive | inactive | inactive | inactive | inactive | inactive | inactive | inactive | – | – | – | – | – | – | – | –
C[C@]12CCC(=O)C=C1CC[C@@H]1[C@@H]2CC[C@]2(C)[C@@H](c3ccc(=O)oc3)CC[C@]12O [SCILLARENONE] | – | – | – | – | – | – | – | – | 6.47 | 6.48 | < 5.00 | 5.79 | 6.40 | < 5.00 | 6.55 | 7.14
